From patent US11400081B2, “Compounds” (The University of Sheffield, priority 2017, dated 2022)
Where a name gives a salt, the structure may show the parent alone.

Target: T1, AM2 receptor (CALCRL+RAMP3) (Homo sapiens, UniProt O60896+Q16602)
T1 construct: host or cells: 1321N1
Assay: AM2 receptor inhibition, LANCE TR-FRET cAMP agonist-antagonist competition assay
Type: cell-based
Conditions: inhibition of AM induced cAMP activation; 1321N1 cells transfected with CALCRL+RAMP3; read-out: AM2 pIC50 (converted)
Protocol: Compounds were assessed for their ability to inhibit ligand-induced elevations of cAMP, using the Perkin Elmer LANCE cAMP assay using commercially-available cells expressing a specific receptor of interest using the following general procedure:
Compounds were prepared in dimethyl sulfoxide (DMSO—99.9% pure) (Sigma Aldrich, Cat #: D4540) added to powder stocks to produce a 20 mM solution (100% DMSO) that was sonicated at 37° C. for 10 minutes to fully dissolve the compounds. The 20 mM stocks were diluted further in DMSO to produce a 2 mM solution that was sonicated at 37° C. for 10 minutes. 2 mM stocks were dissolved in assay/stimulation buffer to produce a 400 μM solution that was sonicated at 37° C. for 10 minutes for all cAMP assays. All stocks were stored at −20° C. Then serial dilution (Dilution factor 10) was performed to achieve the desire experimental concentrations.
Competition assays were performed according to the manufactures instructions using LANCE® TR-FRET cAMP assay kit (Perkin Elmer, Cat #: AD0264). Serial dilutions (3 μl/well) of the molecules were plated in a 384-well OptiPlate (Perkin Elmer, Cat #: 6007299) in duplicates. Appropriate controls (100% stimulation: Forskolin and 0% stimulation: Vehicle control) (6 μl/well) were included in each plate for data normalization. Following the compound addition, 6 μl of G-protein coupled receptor overexpressing cells/Alexa Fluor antibody solution (1:100 dilution) was added in each well at a desired density of 2500 cells/well. The overexpressing cell lines were purchased from DiscoveRx, Birmingham, UK. After spinning the plate at 1000 rpm for 1 minute and vortexing briefly, the cells were pre-incubated with the compounds for 30 minutes at room temperature (covered). Then 3 μl of the equivalent peptide ligand (EC50 dose) was added to all the wells except vehicle and forskolin controls. The plate were then spun down at 1000 rpm for 1 minute and once finished they were vortexed briefly and covered. Cells were stimulated in the presence of the ligands for 15 minutes at room temperature. After stimulation 12 μl of detection mix (Europium-Chelate streptavidin/biotinylated cAMP tracer solution) was added to all wells and incubated for 60 minutes at room temperature. The plate was then read on the Enspire multimode Plate reader (Perkin Elmer), at; 320/340 nm excitation and 615/665 nm emission was recorded.
• 28 mL Hank's Balanced salt solution (+MgCl2, +CaCl2)—(Thermo Fisher Cat #:14170112) • 150 μl HEPES (1M)—(Thermo Fisher Cat #:15630080) • 400 μl Stabilizer (DTPA) Purified BSA (7.5%)—(Perkin Elmer, Cat #: CR84-100) • 60 μl IBMX (250 mM)—(Sigma Aldrich, Cat #: 15879) Specific cAMP/Agonist-Antagonist Competition Assays
The ability of a compound to inhibit the AM induced cAMP activation in AM2 receptor-expressing cells (1321N1 cells transfected with CALCRL+RAMP3, sourced from DiscoverX catalogue number 95-0169C6) was assessed using the protocol above.

T1 sequence (Q16602 23-461): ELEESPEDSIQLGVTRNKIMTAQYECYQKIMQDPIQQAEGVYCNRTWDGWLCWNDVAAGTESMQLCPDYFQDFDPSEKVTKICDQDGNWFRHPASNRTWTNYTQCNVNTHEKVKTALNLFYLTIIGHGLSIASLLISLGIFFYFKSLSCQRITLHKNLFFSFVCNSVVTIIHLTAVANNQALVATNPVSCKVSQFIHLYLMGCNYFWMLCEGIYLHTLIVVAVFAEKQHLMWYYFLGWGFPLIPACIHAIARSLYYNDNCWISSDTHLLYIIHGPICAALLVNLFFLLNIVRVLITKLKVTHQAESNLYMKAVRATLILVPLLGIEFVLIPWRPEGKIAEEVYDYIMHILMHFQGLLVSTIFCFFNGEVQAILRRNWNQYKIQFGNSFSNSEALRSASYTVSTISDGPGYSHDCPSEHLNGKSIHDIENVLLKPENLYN
T1 sequence (O60896 24-148): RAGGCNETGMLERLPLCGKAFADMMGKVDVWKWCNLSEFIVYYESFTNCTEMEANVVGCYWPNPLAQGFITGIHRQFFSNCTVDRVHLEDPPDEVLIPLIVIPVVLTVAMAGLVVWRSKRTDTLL

| Compound | IC50 [nM] |
| --- | --- |
| CNCc1ccccc1CN(CC(=O)Nc1ccc2c(c1)CC1(C2)C(=O)Nc2ncccc21)C(=O)N1CCC2(CCNCC2)CC1 (centres unmarked) [Example 89, N-(2-((Methylamino)methyl)benzyl)-N-(2-oxo-2-((2′-oxo-1,1′,2′,3-tetrahydrospiro[indene-2,3′-pyrrolo[2,3-b]pyridin]-5-yl)amino)ethyl)-3,9-diazaspiro[5.5]undecane-3-carboxamide] | 87.1 |
| CNCc1ccccc1CN(CC(=O)Nc1cc2c(cc1C)CC1(C2)C(=O)Nc2ncccc21)C(=O)C(C)(C)C (centres unmarked) [Example 40, N-(2-((5-Methyl-2′-oxo-1,1′,2′,3-tetrahydrospiro[indene-2,3′-pyrrolo[2,3-b]pyridin]-6-yl)amino)-2-oxoethyl)-N-(2-((methylamino)methyl)benzyl)pivalamide] | 7.41 |
| CC(C)(C)C(=O)N(CC(=O)Nc1ccc2c(c1)CC1(C2)C(=O)Nc2ncccc21)Cc1ccccc1CN1CC(F)(F)C1 (centres unmarked) [Example 11, N-(2-((3,3-Difluoroazetidin-1-yl)methyl)benzyl)-N-(2-oxo-2-((2′-oxo-1,1′,2′,3-tetrahydrospiro[indene-2,3′-pyrrolo[2,3-b]pyridin]-5-yl)amino)ethyl)pivalamide] | 398 |
| CNC(C)c1ccccc1CN(CC(=O)Nc1ccc2c(c1)CC1(C2)C(=O)Nc2ncccc21)C(=O)C(C)(C)C (centres unmarked) [Example 23, N-(2-(1-(Methylamino)ethyl)benzyl)-N-(2-oxo-2-((2′-oxo-1,1′,2′,3-tetrahydrospiro[indene-2,3′-pyrrolo[2,3-b]pyridin]-5-yl)amino)ethyl)pivalamide] | 13.2 |
| COCCNCc1ccccc1CN(CC(=O)Nc1ccc2c(c1)CC1(C2)C(=O)Nc2ncccc21)C(=O)C(C)(C)C (centres unmarked) [Example 18, N-(2-(((2-Methoxyethyl)amino)methyl)benzyl)-N-(2-oxo-2-((2′-oxo-1,1′,2′,3-tetrahydrospiro[indene-2,3′-pyrrolo[2,3-b]pyridin]-5-yl)amino)ethyl)pivalamide] | 33.1 |
| CNCc1ccc(F)cc1CN(CC(=O)Nc1ccc2c(c1)CC1(C2)C(=O)Nc2ncccc21)C(=O)C(C)(C)C (centres unmarked) [Example 54, N-(5-Fluoro-2-((methylamino)methyl)benzyl)-N-(2-oxo-2-((2′-oxo-1,1′,2′,3-tetrahydrospiro[indene-2,3′-pyrrolo[2,3-b]pyridin]-5-yl)amino)ethyl)pivalamide] | 3.55 |
| C=CCN(CC=C)CCc1ccccc1CN(CC(=O)Nc1ccc2c(c1)CC1(C2)C(=O)Nc2ncccc21)C(=O)C(C)(C)C (centres unmarked) [Example 28, N-(2-(2-(Diallylamino)ethyl)benzyl)-N-(2-oxo-2-((2′-oxo-1,1′,2′,3-tetrahydrospiro[indene-2,3′-pyrrolo[2,3-b]pyridin]-5-yl)amino)ethyl)pivalamide] | 490 |
| CC(C)(C)C(=O)N(CC(=O)Nc1ccc2c(c1)CC1(C2)C(=O)Nc2ncccc21)Cc1ccccc1CNCC(F)(F)F (centres unmarked) [Example 6, N-(2-Oxo-2-((2′-oxo-1,1′,2′,3-tetrahydrospiro[indene-2,3′-pyrrolo[2,3-b]pyridine]-5-yl)amino)ethyl)-N-(2-(((2,2,2-trifluoroethyl)amino)methyl)benzyl)pivalamide] | 513 |
| NCc1ccccc1CN(CC(=O)Nc1ccc2c(c1)C[C@@]1(C2)C(=O)Nc2ncccc21)C(=O)C1(C(F)(F)F)CC1 [Example 99, N-[[2-(Aminomethyl)phenyl]methyl]-N-[2-oxo-2-[(2-oxospiro[1H-pyrrolo[2,3-b]pyridine-3,2′-indane]-5′-yl)amino]ethyl]-1-(trifluoromethyl)cyclopropylcarboxamide 2,2,2-trifluoroacetate] | 245 |
| CCC1(C(=O)N(CC(=O)Nc2ccc3c(c2)C[C@@]2(C3)C(=O)Nc3ncccc32)Cc2ccccc2CNC)CCOCC1 [Example 98, 4-Ethyl-N-[[2-(methylaminomethyl)phenyl]methyl]-N-[2-oxo-2-[[(3R)-2-oxospiro[1H-pyrrolo [2,3-b]pyridine-3,2′-indane]-5′-yl]amino]ethyl]tetrahydropyran-4-carboxamide 2,2,2 trifluoroacetate] | 21.4 |
| CNCc1cc(F)ccc1CN(CC(=O)Nc1ccc2c(c1)CC1(C2)C(=O)Nc2ncccc21)C(=O)C(C)(C)C (centres unmarked) [Example 55, N-(4-Fluoro-2-((methylamino)methyl)benzyl)-N-(2-oxo-2-((2′-oxo-1,1′,2′,3-tetrahydrospiro[indene-2,3′-pyrrolo[2,3-b]pyridin]-5-yl)amino)ethyl)pivalamide] | 9.77 |
| CC(C)NCc1ccccc1CN(CC(=O)Nc1ccc2c(c1)CC1(C2)C(=O)Nc2ncccc21)C(=O)C(C)(C)C (centres unmarked) [Example 19, N-(2-((Isopropylamino)methyl)benzyl)-N-(2-oxo-2-((2′-oxo-1,1′,2′,3-tetrahydrospiro[indene-2,3′-pyrrolo[2,3-b]pyridin]-5-yl)amino)ethyl)pivalamide] | 89.1 |

Now from value to compound:

| IC50 [nM] | Compound |
| --- | --- |
| 42.7 | CNCc1ccccc1CN(CC(=O)Nc1ccc2c(c1)CC1(C2)C(=O)Nc2ncccc21)C(=O)NC1CCCC1 (centres unmarked) [Example 83, 2-(3-Cyclopentyl-1-(2-((methylamino)methyl)benzyl)ureido)-N-(2′-oxo-1,1′,2′,3-tetrahydrospiro[indene-2,3′-pyrrolo[2,3-b]pyridin]-5-yl)acetamide] |
| 85.1 | CNCc1ccccc1CN(CC(=O)Nc1ccc2c(c1)CC1(C2)C(=O)Nc2ncccc21)C(=O)C1CCCCO1 (centres unmarked) [Example 64, N-(2-((Methylamino)methyl)benzyl)-N-(2-oxo-2-((2′-oxo-1,1′,2′,3-tetrahydrospiro[indene-2,3′-pyrrolo[2,3-b]pyridin]-5-yl)amino)ethyl)tetrahydro-2H-pyran-2-carboxamide] |
| 8.32 | CNCc1ccccc1CN(CC(=O)Nc1ccc2c(c1)CC1(C2)C(=O)Nc2ncccc21)C(=O)C1CCN(C(=O)NC(C)C)CC1 (centres unmarked) [Example 73, N1-isopropyl-N4-(2-((methylamino)methyl)benzyl)-N4-(2-oxo-2-((2′-oxo-1,1′,2′,3-tetrahydrospiro[indene-2,3′-pyrrolo[2,3-b]pyridin]-5-yl)amino)ethyl)piperidine-1,4-dicarboxamide 2,2,2-trifluoroacetate] |
| 14.8 | CNCc1ccccc1CN(CC(=O)Nc1ccc2c(c1)CC1(C2)C(=O)Nc2ncccc21)C(=O)C1CCOC1 (centres unmarked) [Example 80, N-(2-((Methylamino)methyl)benzyl)-N-(2-oxo-2-((2′-oxo-1,1′,2′,3-tetrahydrospiro[indene-2,3′-pyrrolo[2,3-b]pyridin]-5-yl)amino)ethyl)tetrahydrofuran-3-carboxamide] |
| 44.7 | CNCc1ccccc1CN(CC(=O)Nc1ccc2c(c1)CC1(C2)C(=O)Nc2ncccc21)C(=O)C1CCN(C(=O)CN)CC1 (centres unmarked) [Example 70, 1-(2-aminoacetyl)-N-(2-((methylamino)methyl)benzyl)-N-(2-oxo-2-((2′-oxo-1,1′,2′,3-tetrahydrospiro[indene-2,3′-pyrrolo[2,3-b]pyridin]-5-yl)amino)ethyl)piperidine-4-carboxamide bis(2,2,2-trifluoroacetate)] |
| 263 | CNCc1ccccc1CN(CC(=O)Nc1ccc2c(c1)CC1(C2)C(=O)Nc2ncccc21)C(=O)N(C)OC (centres unmarked) [Example 82, 2-(3-Methoxy-3-methyl-1-(2-((methylamino)methyl)benzyl)ureido)-N-(2′-oxo-1,1′,2′,3-tetrahydrospiro[indene-2,3′-pyrrolo[2,3-b]pyridin]-5-yl)acetamide] |
| 105 | CC(C)(C)C(=O)N(CC(=O)Nc1ccc2c(c1)CC1(C2)C(=O)Nc2ncccc21)Cc1ccccc1CNC1CCC1 (centres unmarked) [Example 20, N-(2-((Cyclobutylamino)methyl)benzyl)-N-(2-oxo-2-((2′-oxo-1,1′,2′,3-tetrahydrospiro[indene-2,3′-pyrrolo[2,3-b]pyridin]-5-yl)amino)ethyl)pivalamide] |
| 2.82 | CNCc1ccccc1CN(CC(=O)Nc1ccc2c(c1)CC1(C2)C(=O)Nc2ncccc21)C(=O)C1CCCC1 (centres unmarked) [Example 65, N-(2-((methylamino)methyl)benzyl)-N-(2-oxo-2-((2′-oxo-1,1′,2′,3-tetrahydrospiro[indene-2,3′-pyrrolo[2,3-b]pyridin]-5-yl)amino)ethyl)cyclopentanecarboxamide] |
